Literature values, collected in patent publication US20230040901A1, “PHARMACEUTICAL COMPOSITION FOR INHIBITING POSTOPERATIVE ADHESIONS” (PlantTec Medical GmbH, priority 2018, published 2023).

Tests used:
[1] = test system: postoperative adhesions; conditions: 2% to 4% citrate in water or saline solution, 60 experiments on rabbits
[2] = test system: postoperative adhesions; conditions: clinical application in 400 abdominal surgeries

SMILES: O=C(O)CC(O)(CC(=O)O)C(=O)O [citrate]
- Adhesions [1]: fewer adhesions
- Development of adhesions [2]: clear improvement
